The source of these data is US20070219214A1, “Dual NK2/NK3-antagonists, pharmaceutical compositions comprising them, and processes for their preparation” (Solvay pharmaceuticals GmbH, priority 2006, published 2007).

Like-named read-outs stand apart in the source and are kept apart here.

Assay [1] deals with T1, human NK2-receptor (Homo sapiens, UniProt P21452).
T1 sequence (P21452 1-398): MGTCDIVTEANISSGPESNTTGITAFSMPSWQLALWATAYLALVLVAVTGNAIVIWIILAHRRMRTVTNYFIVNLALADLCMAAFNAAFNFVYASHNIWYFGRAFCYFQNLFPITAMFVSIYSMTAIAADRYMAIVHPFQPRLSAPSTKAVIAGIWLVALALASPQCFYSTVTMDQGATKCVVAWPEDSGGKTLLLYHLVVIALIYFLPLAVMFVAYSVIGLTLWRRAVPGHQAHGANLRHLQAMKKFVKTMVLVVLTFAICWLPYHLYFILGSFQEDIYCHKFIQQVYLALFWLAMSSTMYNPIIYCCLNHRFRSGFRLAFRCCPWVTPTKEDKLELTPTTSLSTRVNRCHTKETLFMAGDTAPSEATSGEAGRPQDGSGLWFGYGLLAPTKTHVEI
Briefly: Binding potency of the test substances to NK2-receptors in vitro ([3H]-SR 48968 displacement). Details: expressed in transfected cells; host or cells: CHO cells (membrane preparation). Particulars: human NK2-receptor in CHO cell membranes, [3H]-SR 48968 (saredutant), average of at least three measurements; for Ki: read-out: pKi, binding potency to NK2-receptors (converted). From the text: 2. Determination of the Binding Potency of the Test Substances to NK2-Receptors in Vitro
The affinity of test compounds for NK2-receptors can be determined by measuring the ability of the test compound to displace a radiolabeled ligand from its specific binding site.
(§1) The radiolabel used in this assay is [^3H]-SR 48968 (saredutant). Receptors were obtained from membrane preparations of CHO-cells (Chinese Hamster Ovary cells), in which the human NK2-receptor was stably expressed. Membranes were incubated with [^3H]-saredutant in the absence or presence of test compounds at different concentrations, diluted in a buffer system. Separation of bound radioactivity from free radioactivity was done by filtration through glass fiber filters (Packard GF/B) with several washings with ice-cold buffer solution. Bound radioactivity was measured with a liquid scintillation counter (total binding). Unspecific binding was determined by incubation with an excess (0.1 μmol/l) of unlabeled saredutant. Specific binding is obtained by subtracting the unspecific binding from the total binding.
Radioactivity of the specific binding was plotted against the concentration of the test compound and IC50 values, i.e. the concentration of test compound by which 50% of the radioligand is displaced, were calculated. The inhibition constant (Ki) was calculated according to the Cheng-Prusoff equation, and listed as its negative logarithmic value (pKi). The pKi value describes the potency of a test compound to bind to a receptor.
(§2) The average result of all measurements is listed above.

In assay [2] the target is T2, human NK3 receptor (Homo sapiens, UniProt P29371).
T2 sequence (P29371 1-465): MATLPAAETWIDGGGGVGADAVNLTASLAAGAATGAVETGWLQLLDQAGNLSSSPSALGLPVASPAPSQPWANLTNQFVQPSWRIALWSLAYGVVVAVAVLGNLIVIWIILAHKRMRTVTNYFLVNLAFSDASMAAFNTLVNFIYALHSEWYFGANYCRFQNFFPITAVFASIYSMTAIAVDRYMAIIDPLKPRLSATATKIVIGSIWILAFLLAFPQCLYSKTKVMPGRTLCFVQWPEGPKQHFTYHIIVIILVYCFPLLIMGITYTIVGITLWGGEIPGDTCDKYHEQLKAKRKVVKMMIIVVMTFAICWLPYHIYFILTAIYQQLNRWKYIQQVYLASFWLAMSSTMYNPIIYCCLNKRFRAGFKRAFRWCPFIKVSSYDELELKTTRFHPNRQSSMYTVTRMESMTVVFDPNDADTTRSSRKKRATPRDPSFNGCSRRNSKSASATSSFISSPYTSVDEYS
In words: Binding potency of the test substances to NK3-receptors in vitro ([3H]-SR 142801 displacement). Details: expressed in transfected cells; host or cells: CHO cells (membrane preparation). Particulars: human NK3-receptor in CHO cell membranes, [3H]-SR 142801 (osanetant), average of at least three measurements; for Ki: read-out: pKi, binding potency to NK3-receptors (converted).
Source text: 3. Determination of the Binding Potency of the Test Substances to NK3-Receptors in Vitro
The affinity of test compounds for NK3-receptors can be determined by measuring the ability of the test compound to displace a radiolabeled ligand from its specific binding site.
as §1, with “142801 (osanetant).” for “48968 (saredutant).”, “NK3-receptor” for “NK2-receptor”, “[^3H]-osanetant” for “[^3H]-saredutant”, “(1” for “(0.1”, “osanetant.” for “saredutant.”
Radioactivity of the specific binding was plotted against the concentration of the test compound and IC50 values, i.e. the concentration of test compound by which 50% of the radioligand is displaced, were calculated. The inhibition constant (Ki) was calculated according to the Cheng-Prusoff equation, and listed as its negative logarithmic value (pKi) The pKi value describes the potency of a test compound to bind to a receptor.
as §2

For assay [3], the target named is T3, human NK1-receptor (Homo sapiens, UniProt P25103). Briefly: Binding potency of the test substances to NK1-receptors in vitro ([3H]-Substance P displacement). Particulars: human NK1-receptor in CHO cell membranes, average of at least three measurements. As to the method: 1. Determination of the Binding Potency of the Test Substances to NK1-Receptors in Vitro
The affinity of test compounds for NK1-receptors can be determined by measuring the ability of the test compound to displace a radiolabeled ligand from its specific binding site. The tests were performed at Solvay Pharmaceuticals, Weesp, The Netherlands.
Separation of bound radioactivity from free radioactivity was done by filtration through glass fiber filters (Packard GF/B) with several washings with ice-cold buffer solution. Bound radioactivity was measured with a liquid scintillation counter (total binding).
The inhibition constant (Ki) was calculated according to the Cheng-Prusoff equation, and listed as its negative logarithmic value (pKi). The pKi value describes the potency of a test compound to bind to a receptor.

In assay [4] the target is T1, human NK2-receptor. In words: Functional cellular test, Ca2+ measurements using FLIPR for NK2 activity.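 Note: CHO cells stably expressing the human receptor, loaded with a calcium dye, antagonist inhibition of ligand-evoked intracellular calcium rise read as peak fluorescence change on FLIPR.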
Assay [5] addresses T2, human NK3 receptor. In words: Functional cellular test, Ca2+ measurements using aequorin for NK3 activity. More on the design: expressed in transfected cells; host or cells: cell line co-expressing mitochondrially targeted apoaequorin (CHO according to b76/b77). The format is cell-based. The following applies: for Kb: read-out: pA2 data for NK3 (converted).
Assay [6] concerns the target T3, human NK1-receptor. In words: Functional cellular test, Ca2+ measurements using FLIPR for NK1 activity. The format is cell-based. Details: expressed in transfected cells; host or cells: CHO fibroblast cells. Particulars: read-out: pA2 data for NK1 (converted). The text has this:
The NK receptor is coupled to Gq.
All steps were done under sterile conditions.

Where [7] appears, read: read-out: pKi, binding potency to NK1-receptors (converted).

T3 sequence (P25103 whole entry): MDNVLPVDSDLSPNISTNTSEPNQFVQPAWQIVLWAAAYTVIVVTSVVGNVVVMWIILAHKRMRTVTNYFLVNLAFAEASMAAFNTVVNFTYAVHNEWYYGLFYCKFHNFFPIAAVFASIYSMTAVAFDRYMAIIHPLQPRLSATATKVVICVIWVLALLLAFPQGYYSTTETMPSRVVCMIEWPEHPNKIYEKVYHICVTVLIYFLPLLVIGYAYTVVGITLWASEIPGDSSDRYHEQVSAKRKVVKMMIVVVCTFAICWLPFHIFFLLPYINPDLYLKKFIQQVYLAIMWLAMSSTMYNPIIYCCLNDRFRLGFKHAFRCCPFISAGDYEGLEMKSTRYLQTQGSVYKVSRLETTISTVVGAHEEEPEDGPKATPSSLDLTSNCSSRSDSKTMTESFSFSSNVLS

With `CN(CC(CCN1CCC(C(=O)N2CCCC2)(N2CCCCC2)CC1)c1ccc(Cl)c(Cl)c1)C(=O)c1cc(C#N)cc2ccccc12` (stereo not drawn) [compound 126], the results for the Ki in assay [1], in assay [2] and in assay [3] (setting [7]) were 10 nM, 39.8 nM and 6.31 nM, respectively.
In the case of `CN(C)C(=O)C1(N2CCCCC2)CCN(CCC(CN(C)C(=O)c2cccc(C(F)(F)F)c2)c2ccc(Cl)c(Cl)c2)CC1` (stereo not drawn) [compound 83], the Kb in assay [4] is 15.8 nM. In addition, the Ki in assay [1] is 5.01 nM; in assay [2] it was 3.16 nM; in assay [3] (pKi, binding potency to NK1-receptors), 79.4 nM.
On to `CN(C)C(=O)C1(N2CCCCC2)CCN(CCC(CN(C)C(=O)c2cccc(Cl)c2)c2ccc(Cl)c(Cl)c2)CC1` (stereo not drawn) [compound 80], for which the Ki in assay [1] was 2 nM; in assay [2] it was 79.4 nM; in assay [3] (setting [7]), 79.4 nM.
In the case of `CN(C)C(=O)C1(N2CCCCC2)CCN(CCC(CN(C)C(=O)c2cc(C(F)(F)F)cc(C(F)(F)F)c2)c2ccc(Cl)c(Cl)c2)CC1` (stereo not drawn) [compound 70], the Ki in assay [1] is 25.1 nM; in assay [2], 63.1 nM; in assay [3] (setting [7]), 63.1 nM.
Regarding `Cc1c(C(=O)N(C)CC(CCN2CCC(C(=O)N(C)C)(N3CCCCC3)CC2)c2ccc(Cl)c(Cl)c2)nnn1Cc1ccccc1` (stereo not drawn) [compound 67], the results for the Kb in assay [5] and in assay [4] were 15.8 nM and 25.1 nM, respectively. Further, the Ki was 6.31 nM in assay [1] and 5.01 nM in assay [2].
With `CN(CC(CCN1CCC(C(=O)N2CCCCC2)(N2CCCCC2)CC1)c1ccc(Cl)c(Cl)c1)C(=O)c1cc(C#N)cc2ccccc12` (stereo not drawn) [compound 125], the Ki is 50.1 nM in assay [1], 50.1 nM in assay [2] and 12.6 nM in assay [3] (setting [7]).
Consider `CN(C)C(=O)C1(N(C)C)CCN(CCC(CN(C)C(=O)c2ccccc2)c2ccc(Cl)c(Cl)c2)CC1` (stereo not drawn) [compound 127], for which the Ki in assay [1] is 2 nM; in assay [3] (setting [7]), 79.4 nM.
As for `CN(C)C(=O)C1(N2CCN(CC[C@H](CN(C)C(=O)c3ccccc3)c3ccc(Cl)c(Cl)c3)CC2)CCCCC1` [compound 96, N-[(2S)-2-(3,4-dichlorophenyl)-4-(4-{1-[(dimethylamino)-carbonyl]cyclohexyl}piperazin-1-yl)butyl]-N-methylbenzamide], the Kb was 1.26 nM in assay [4] and 31.6 nM in assay [6]. The Ki in assay [1] is 2 nM.
As for `CC(=O)Oc1ccc(C(=O)N(C)C[C@@H](CCN2CCC(C(=O)N(C)C)(N3CCCCC3)CC2)c2ccc(Cl)c(Cl)c2)cc1` [compound 5, 4-({[(2S)-2-(3,4-dichlorophenyl)-4-{4′-[(dimethylamino)-carbonyl]-1,4′-bipiperidin-1′-yl}butyl](methyl)amino}carbonyl)phenyl acetate], the Kb in assay [5] and in assay [4] was 3.16 nM each time. For the same compound, the Ki in assay [1] was 1 nM; in assay [2], 5.01 nM.
Take `CN(C)C(=O)C1(N2CCCCC2)CCN(CCC(CN(C)C(=O)Cc2ccncc2)c2ccc(Cl)c(Cl)c2)CC1` (stereo not drawn) [compound 51]: the Kb in assay [5] is 31.6 nM; in assay [4], 39.8 nM. For the same compound, the Ki in assay [1] was 79.4 nM; in assay [2] it was 6.31 nM.
For `CN(C)C(=O)C1(N2CCCCC2)CCN(CC[C@H](CN(C)C(=O)c2ccccc2O)c2ccc(Cl)c(Cl)c2)CC1` [compound 12], the “pA2 data for NK3” value in assay [5] (cell line with human NK3 receptor and apoaequorin, agonist senktide 5x10-8 M) is recorded as 7.9. In assay [4] (CHO cells, human NK2, FLIPR Ca2+, agonist NKA 10^-7 M), the “pA2 data for NK2” value was determined as 8.3. In addition, the “pKi, binding potency to NK2-receptors” value in assay [1] is listed as 8.7. Also, the “pKi, binding potency to NK3-receptors” value in assay [2] turned out to be 7.9.
As for `CN(C)C(=O)C1(N2CCCCC2)CCN(CCC(CN(C)C(=O)Cc2ccc(C(F)(F)F)c(C(F)(F)F)c2)c2ccc(Cl)c(Cl)c2)CC1` (stereo not drawn) [compound 56], the values for the Ki in assay [1], in assay [2] and in assay [3] (setting [7]) were 25.1 nM, 5.01 nM and 63.1 nM, respectively.
With `CNc1ccccc1C(=O)N(C)CC(CCN1CCC(C(=O)N(C)C)(N2CCCCC2)CC1)c1ccc(Cl)c(Cl)c1` (stereo not drawn) [compound 24], the Ki in assay [1] was 5.01 nM; in assay [3] (setting [7]), 79.4 nM.
On to `CN(C)C(=O)C1CCCCN1C1CCN(CCC(CN(C)C(=O)c2ccccc2)c2ccc(Cl)c(Cl)c2)CC1` (stereo not drawn) [compound 97], for which the Kb in assay [5] is 79.4 nM; in assay [4], 0.251 nM. The Ki in assay [1] was 2 nM; in assay [2], 79.4 nM.
For the compound `COc1cccc(C(=O)N(C)CC(CCN2CCC(C(=O)N(C)C)(N3CCCCC3)CC2)c2ccc(Cl)c(Cl)c2)c1` (stereo not drawn) [compound 82], the Ki in assay [1] is 2.51 nM; in assay [2], 25.1 nM; in assay [3] (setting [7]), 79.4 nM.
As to `CN(C)C(=O)C1(N2CCCCC2)CCN(CCC(CN(C)C(=O)c2ccoc2)c2ccc(Cl)c(Cl)c2)CC1` (stereo not drawn) [compound 36], the Kb was 63.1 nM in assay [5] and 0.501 nM in assay [4]. Also, the results for the Ki in assay [1] and in assay [2] were 1.58 nM and 5.01 nM, respectively.
For `CN(C)C(=O)C1(N2CCCCC2)CCN(CCC(CN(C)C(=O)c2cccs2)c2ccc(Cl)c(Cl)c2)CC1` (stereo not drawn) [compound 37], in that order: 31.6 nM, 1.58 nM, 1.58 nM and 20 nM.
